# Measurements published in EP3516395B1, “METHOD FOR DETERMINING AFFINITY BETWEEN LIGANDS AND A TARGET” (Plant Advanced Technologies Pat, priority 2016, dated 2018).
# Read-outs that look alike come from different tables or passages of the source.
# How the values were obtained:
# [1] = tested on: collagénase issue de Clostridium histolyticum; assay: Collagenase inhibition with synthetic substrate FALGPA (Example 4); format: biochemical; conditions: for activité de la collagénase: ligand 5µM, FALGPA 1 mM, tris-HCl buffer alone = 100%
# Description: L'activité inhibitrice de la collagénase issue de Clostridium histolyticum a été expérimentée en mettant en présence de la collagénase et du substrat synthétique FALGPA (N-(3-[2-Furyl]acryloyl)-Leu-Gly-Pro-Ala) préparé à une concentration de 1 mM, du tampon tris-HCI seul pour établir une référence, et en présence respectivement de tampon tris-HCI additionné de 3,5-DCQ et 3,5-DCQ-DPG en concentration à 5µM. La référence montrant une activité de la collagénase de 100%, on a mesuré une activité de la collagénase de 94% en présence de 3,5-DCQ et une activité de 50% en présence de 3,5-DCQ-DPG. A cette concentration, la collagénase de Clostridium histolyticum est inhibée de manière significative par le 3,5-DCQ-DPG, tandis qu'elle ne l'est que très peu par le 3,5-DCQ.
# [2] = tested on: collagénase issue de Clostridium histolyticum; assay: Relative affinity by competitive binding, ultrafiltration and LC-MS (Examples 2, 3, 6); conditions: for Affinités relatives: reference 3,5-DCQ
# Description: Une solution de travail de collagénase issue de Clostridium histolyticum à 6.25 mg/mL est préparée en dissolvant de la poudre de l'enzyme lyophilisée dans 50 mM d'acétate d'ammonium, avec un pH de 7.5, ajusté par une solution aqueuse d'ammoniac. L'échantillon est préparé en utilisant l'un des solvants suivants : des glycols, le DMSO (diméthylsulfoxide), l'éthanol, pur ou en solution dans l'eau. La concentration dans l'échantillon des ligands initiaux est équimolaire et doit être dans la gamme de 0,75 à 1 mM. Les ligands choisis étaient des isomères d'acide 3,5-dicaféoylquinique (noté 3,5-DCQ par la suite) et des isomères d'esters d'acide 3,5-dicaféoylquinique et de dipropylène glycol (noté 3,5-DCQ-DPG par la suite). Un échantillon de référence est préparé également en diluant l'échantillon de 10 à 20 fois dans une solution d'eau et d'un quart de volume d'acétonitrile.
# • 1. Étape de préconditionnement - Des puits à membrane filtrante sont pré-conditionnées avec un volume de 500 µl d'acétate d'ammonium 50mM pH 7,5 qui est passé à travers la membrane avec une centrifugation de 14000 g pendant 60 secondes. • 2. Étape de liaison - Un volume de 75 µl de la solution de collagénase à une concentration de 6,25mg/ml dans 50 mM d'acétate d'ammonium, avec un pH de 7.5 est mélangé avec 10 µl de l'échantillon pendant 10 min dans un tube d'Eppendorf en plastique. Dans ce mélange, on a 55,79 µM de collagénase et une gamme de 93,75 µM à 125 µM de ligands (3,5-DCQ et 3,5-DCQ-DPG) soit un ratio ligands/cible entre […]. • 3. Étape de lavage - Le mélange de l'enzyme et de l'échantillon est déposé dans un puits préconditionné à l'étape de préconditionnement, puis centrifugé à 14000 g jusqu'à l'élimination de l'essentiel du solvant. Les complexes enzyme-ligands restent à la surface de la membrane du filtre puis sont à nouveau suspendu dans un volume de 100 µL de la même solution à 50 mM d'acétate d'ammonium, avec un pH de 7.5 et centrifugé à 14000 g jusqu'à élimination du solvant. Cette procédure est répétée trois fois et élimine tous les composés qui ne sont pas liés à l'enzyme. • 4. Étape de séparation - Les complexes enzyme-ligands retenus dans le filtre sont à nouveau suspendus dans un volume de 10 µL d'eau ultra-pure, puis sont mélangés avec un volume de 40 µL d'acétonitrile pour dénaturer et précipiter l'enzyme et, en même temps libérer les ligands. Le mélange est centrifugé à 21000 g pendant 10 min pour séparer le précipité du surnageant. • 5. Étape d'analyse - Ledit surnageant formant la solution traitée est analysé par chromatographie en phase liquide couplée à une spectrométrie de masse. L'échantillon de référence est analysé également de la même manière, en utilisant les mêmes conditions d'analyse. Les affinités relatives sont calculées selon la méthode décrite ci-après. Le résultat est sur la première ligne du tableau 3.
# Plusieurs échantillons sont préparés comme dans l'exemple 2, mais avec une proportion entre les ligands 3,5-DCQ et 3,5-DCQ-DPG non plus équimolaire mais déséquilibrée, comme indiqué dans le tableau 3 ci-après.
# L'analyse est conduite de la même manière que dans l'exemple 2. Les résultats sont de la deuxième à la quatrième ligne du tableau 3.
# La préparation des échantillons (ligands et cible) et leur analyse ont été réalisés selon l'exemple 2. Les effets des variations du rapport de ligands/cible ont été évalués.
# Une analyse par chromatographie en phase liquide fournit un chromatogramme tel que montré par les figures 1 et 2. Le chromatogramme représente une intensité de signal en fonction du temps de rétention dans une colonne. Le signal présente différents pics d'intensité variable. Chaque pic est associé à l'un des ligands présent dans l'échantillon et la solution traitée. • 1. Normalisation de l'intensité du signal analytique pour les ligands dans l'échantillon de référence. […]
# [3] = molecular target: collagénase issue de Clostridium histolyticum; conditions: J. Nat. Prod. 2005, 68, 794-796; cited from earlier work
# trypsine [4] = assay: Affinity by binding, ultrafiltration and UPLC-MS, control target (Example 5); conditions: chromatogram C, figure 3
# Description: (§1) Une solution de travail de hyaluronidase de testicules bovins à 5 mg/mL est préparée en dissolvant de la poudre de l'enzyme lyophilisée dans un tampon phosphate salin à 50 mM, avec un pH de 7,0. Une solution de travail de trypsine (la cible témoin) est préparée de la même manière que celle de hyaluronidase. L'échantillon est préparé en utilisant l'un des solvants suivants : des glycols, DMSO (diméthylsulfoxide), l'éthanol pur ou en solution dans l'eau. La concentration dans l'échantillon de ligand initial doit être dans la gamme de 0,75 à 1 mM. Le ligand choisi (quercétine) est un inhibiteur connu de l'hyaluronidase (Asian J. Chem. 2013, 25, 10262-10266). Un échantillon de référence est préparé également en diluant l'échantillon de 10 à 20 fois dans une solution de trois quarts de volume d'acétonitrile et d'un quart de volume d'eau. […]
# [5] = tested on: hyaluronidase de testicules bovins; assay: Affinity by binding, ultrafiltration and UPLC-MS (Example 5); conditions: chromatogram B, figure 3
# Description: as §1
# trypsine [6] = conditions: 2660 µM; International Journal of Food Science & Technology 2014, 49, 1063-1069; cited from earlier work
# hyaluronidase = conditions: 200 µM; Asian J. Chem. 2013, 25, 10262-10266; cited from earlier work
# [7] = ex. 2, molar ratio 3,5-DCQ-DPG/3,5-DCQ 1/1 (équimolaire)
# [8] = ex. 3.1, molar ratio 3,5-DCQ-DPG/3,5-DCQ 0,5/1
# [9] = ex. 3.2, molar ratio 3,5-DCQ-DPG/3,5-DCQ 0,2/1
# [10] = ex. 3.3, molar ratio 3,5-DCQ-DPG/3,5-DCQ 3/1
Molecule,activité de la collagénase [1],"Facteur de normalisation, solution traitée [2, 7]","Affinités relatives [2, 7]","Facteur de normalisation, solution traitée [2, 8]","Affinités relatives [2, 8]","Facteur de normalisation, solution traitée [2, 9]","Affinités relatives [2, 9]","Facteur de normalisation, solution traitée [2, 10]","Affinités relatives [2, 10]",IC50 [3],affinité (trypsine [4]),affinité [5],inhibition de la trypsine (trypsine [6]),inhibition de l'hyaluronidase (hyaluronidase),"IC50 ([1]; approximate, from Example 4 (50% activity at 5µM))","(RADCQ−DPG^Mx)/(RADCQ−DPG^Mref) ([2]; sample M_1: collagénase 32,1 µM, DCQ/DCQ-DPG 75/75 µM, ligands/collagénase 2,33, competition)","(RADCQ−DPG^Mx)/(RADCQ−DPG^Mref) ([2]; sample M_2: collagénase 32,1 µM, DCQ/DCQ-DPG 50/50 µM, ligands/collagénase 1,56, competition)","(RADCQ−DPG^Mx)/(RADCQ−DPG^Mref) ([2]; sample M_3: collagénase 32,1 µM, DCQ/DCQ-DPG 15/15 µM, ligands/collagénase 0,47, no competition)"
"O=C(/C=C/c1ccc(O)c(O)c1)OC1CC(O)(C(=O)O)CC(OC(=O)/C=C/c2ccc(O)c(O)c2)C1O (stereo not drawn) [3,5-DCQ, acide 3,5-dicaféoylquinique]",94%,"1,00","1,00","1,00","1,00","1,00","1,00","1,00","1,00",23.6 µM,,,,,,,,
O=c1c(O)c(-c2ccc(O)c(O)c2)oc2cc(O)cc(O)c12 [quercétine],,,,,,,,,,,très faible affinité,affinité importante,46%,54%,,,,
"esters d'acide 3,5-dicaféoylquinique et de dipropylène glycol [3,5-DCQ-DPG]",50%,"6,03","5,21","2,49","4,05","0,81","3,01","13,64","4,09",,,,,,~5 µM,"0,96","0,71","0,47"
